Results reported in patent US6670145B2, “Method for detection of total coliforms and E. coli” (The United States of America as represented by the …, priority 1991, dated 2003).
Where a name gives a salt, the structure may show the parent alone.

Columns and labels:
total coliform colonies = experiment: Other β-galactosidase substrates tested with IBDG in the selective base medium; type: cell-based, total coliforms; settings: β-galactosidase substrate tested with IBDG in selective base medium
Text: (§1) The selective base medium without the substrates MUGal and IBDG (with or without agar) can be used with other β-galactosidase and β-glucuronidase substrates for the detection of total coliforms and/or E. coli. For example, each of three other β-galactosidase substrates (2-Nitrophenyl-β-D-galactopyranoside, Chlorophenol Red-β-galactopyranoside, and Resorufin-β-D-Galactopyranoside) have been tested with IBDG in this lab. […] We believe other combinations of substrates in this base medium would also work in the various embodiments described in this document, and different enzyme substrates (other than β-galactosidase and β-glucuronidase substrates) for specific coliforms could be used in this base medium because of its selectivity. The following guidance is provided for choosing ingredients for the alternative embodiments.

[1] = tested on: Escherichia coli (ATCC 25922); experiment: Confirmatory spot test with enzyme substrates; type: cell-based; parameters: key to Reactions in Wells Containing: MUGal (fluorescence): +: A positive reaction is shown by fluorescence of the well under long wave ultraviolet light; key to Reactions in Wells Containing: IBDG (blue color): +: A positive reaction is shown by production of a blue color in the well; settings: 35° C., up to 24 hours
Protocol: (§2) One hundred microliter volumes of a bacterial suspension were placed in three wells of a sterile porcelain spot test plate or other suitable plate with wells. The bacterial suspension was obtained in one of the following ways:
(§3) 1. A loopful of bacterial growth from a slant or an isolated colony from an agar plate was emulsified in a small amount of the liquid MI broth medium without substrates or other non-selective broths.
(§4) 2. Aliquots of 100 μl of a bacterial culture grown over-night at 35° C. in a non-selective broth or the liquid medium without substrates were used.
(§5) Sixty microliters of a freshly-prepared, filter-sterilized 16 mg/ml IBDG solution was added to one well of bacterial suspension, and 300 μl of a freshly-prepared, filter-sterilized 1 mg/ml MUGal solution was added to a second well. The third well, containing only bacterial suspension (negative control), was used as a comparator to distinguish positive and negative wells. Additional wells were inoculated with uninoculated medium, IBDG, and MUGal as controls. The plates were covered with sterile foil and incubated at 35° C. for up to 24 hours. […] This test could also be performed by adding all of the test liquids and culture or sample to a piece of filter paper or to an absorbent pad and observing the reactions.

[2] = tested on: Escherichia coli (EPA 206); experiment: Confirmatory spot test with enzyme substrates; type: cell-based; parameters: key to Reactions in Wells Containing: MUGal (fluorescence): +: A positive reaction is shown by fluorescence of the well under long wave ultraviolet light; key to Reactions in Wells Containing: IBDG (blue color): +: A positive reaction is shown by production of a blue color in the well; settings: 35° C., up to 24 hours
Protocol: as §2, §3, §4, §5

E. coli colonies = experiment: Other β-galactosidase substrates tested with IBDG in the selective base medium; type: cell-based; settings: IBDG with each of three other β-galactosidase substrates in selective base medium
Text: as §1

[3] = tested on: Enterobacter aerogenes (EPA 202); experiment: Confirmatory spot test with enzyme substrates; type: cell-based; parameters: key: +: A positive reaction is shown by fluorescence of the well under long wave ultraviolet light; settings: 35° C., up to 24 hours, UV 366 nm
Protocol: as §2, §3, §4, §5

[4] = tested on: Klebsiella pneumoniae (EPA 207); experiment: Confirmatory spot test with enzyme substrates; type: cell-based; parameters: key: +: A positive reaction is shown by fluorescence of the well under long wave ultraviolet light; settings: 35° C., up to 24 hours, UV 366 nm
Protocol: as §2, §3, §4, §5

O=c1ccc2nc3ccc(O[C@@H]4O[C@H](CO)[C@H](O)[C@H](O)[C@H]4O)cc3oc-2c1 [Resorufin-β-D-Galactopyranoside]
colors of the total coliform colonies (total coliform colonies): pink-red

O=S1(=O)OC(c2ccc(O)c(Cl)c2)(c2ccc(O[C@@H]3O[C@H](CO)[C@H](O)[C@H](O)[C@H]3O)c(Cl)c2)c2ccccc21 (stereo partly drawn) [Chlorophenol Red-β-galactopyranoside]
colors of the total coliform colonies (total coliform colonies): orchid

O=[N+]([O-])c1ccccc1O[C@@H]1O[C@H](CO)[C@H](O)[C@H](O)[C@H]1O [2-Nitrophenyl-β-D-galactopyranoside]
colors of the total coliform colonies (total coliform colonies): yellow

O=C(O)[C@H]1O[C@@H](Oc2c[nH]c3ccccc23)[C@H](O)[C@@H](O)[C@@H]1O [IBDG, Indoxyl-Beta-D-glucuronide, sodium salt or cyclohexylammonium salt]
Reactions in Wells Containing: IBDG (blue color) [1]: + | Reactions in Wells Containing: IBDG (blue color) [2]: + | color of the E. coli colonies (E. coli colonies): varying shades of blue

Cc1cc(=O)oc2cc(O[C@@H]3O[C@H](CO)[C@H](O)[C@H](O)[C@H]3O)ccc12 [MUGal, 4-Methylumbelliferyl-Beta-D-galactopyranoside]
Reactions in Wells Containing: MUGal (fluorescence) ([1]; UV 366 nm): + | Reactions in Wells Containing: MUGal (fluorescence) ([2]; UV 366 nm): + | Reactions in Wells Containing: MUGal (fluorescence) [3]: + | Reactions in Wells Containing: MUGal (fluorescence) [4]: +
